Experiments:
Format in all cases: in vivo
Plasmopara viticola = assay: Test 3: control effect against grape downy mildew; settings: Plasmopara viticola, 120 h, control value vs untreated section
Summary of the method: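 Neomuscat grape seedlings were sprayed with compound at 4 ppm, diluted from a 10% wettable powder in Tween20 solution. One day later they were inoculated with Plasmopara viticola zoospores at 1.0×10^4 units/ml and held moist at 22° C. for 16 hr. Control value was derived from leaf lesion area at 5 days versus untreated leaves.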

[1] = system: Pseudoperonospora cubensis; assay: Test 2: control effect against cucumber downy mildew; settings: Pseudoperonospora cubensis, 120 h, control value vs untreated section
Summary of the method: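 Cucumber (Sagami hanjiro) at 2-leaf stage sprayed with 4 ppm compound from 10% wettable powder in Tween20 (1/5000); inoculated next day with P. cubensis zoospores, 1.0×10^4 units/ml, 16 hr moist chamber at 22° C. Lesion area rate scored 5 days post-inoculation; control value = (1 − treated/untreated onset area rate)×100.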

Phytophthora infestans = assay: whole plant or invertebrate; settings: Phytophthora infestans, in Solanum lycopersicum, 96 h, read-out: control value (Test 1)
Pythium graminicola = assay: Test 4: control effect against rice damping-off by the Pythium fungus (soil lavage); settings: 1,000 ppm, 2.5 ml test suspension drenched on contaminated soil, rice (koshihikari)
Experimental: A 10% wettable powder created according to the Pharmaceutical Formulation Example 1 was diluted with a Tween20 solution prepared to a concentration of 1/5000, then the compound of formula [1] was prepared to a concentration of 4 ppm. Further, the compound of formula [1] in Test 4 was adjusted to a concentration of 1,000 ppm.
<Test 4 Test of Control Effect Against Rice Damping-Off by the Pythium Fungus (Soil Lavage)>
Distilled water was added to the flora of Pythium graminicola cultured in bentoglass seed culture and stirred with a mixer, and adjusted the contaminated soil to 5 g of bacteria against 1 kg of soil.
In a cell tray having 31×31 mm^2 per cell, 20 ml of the contaminated soil was filled in each cell, and 3 seeds of rice chaff that has been forced to sprout (Species: koshihikari) were seeded, and 5 ml of soil was added for covering, then 2.5 ml of test suspension was drenched, and the seeds were incubated in a moist chamber adjusted to 28° C. for 72 hr to induce sprouting. Then, in a low temperature room of 5° C., the onset of disease was induced for 2 days, then the disease was nurtured for 14 days in a room of 25° C.
The soil was washed, and the apoptosis strain, growth restrained strain, and a healthy strain were measured and the onset rate was calculated by the following formula. Onset rate=[Σ(onset strain number by level×onset index)/(investigated strain×3)]×100 [Onset Index]
1: Growth restrained strain
Also, the following formula was used to compute the control value from the obtained onset index. control value={1−onset area rate at the section applied the test agent/onset area rate of untreated section}×100 Computational formula of the control value: […]

SMILES	pest or weed control at 4 µg/mL (Plasmopara viticola) [%]	pest or weed control at 4 µg/mL [1] [%]	pest or weed control at 4 µg/mL (Phytophthora infestans) [%]	pest or weed control at 1000 ppm (Pythium graminicola) [%]
Cc1cc(C(F)(F)F)nn1CC(=O)N1CCC(c2nc(C3OCc4ccc(F)cc4CO3)cs2)CC1 (centres unmarked) [Compound 1-11, 4-[4-(7-fluoro-1,5-dihydro-3H-2,4-benzodioxepin-3-yl)-2-thiazolyl]-1-[2-[5-methyl-3-(trifluoromethyl)-1H-pyrazole-1-yl]acetyl]piperidine]	100	100	100	≥ 90
Cc1cc(C(F)(F)F)nn1CC(=O)N1CCC(c2nc(C3OCc4cccc(Br)c4CO3)cs2)CC1 (centres unmarked) [Compound 1-15, 4-[4-(6-bromo-1,5-dihydro-3H-2,4-benzodioxepin-3-yl)-2-thiazolyl]-1-[2-[5-methyl-3-(trifluoromethyl)-1H-pyrazole-1-yl]acetyl]piperidine]	100	100	100	≥ 90
CCCCS(=O)(=O)Oc1cccc2c1COC(c1csc(C3CCN(C(=O)Cn4nc(C(F)(F)F)cc4C)CC3)n1)OC2 (centres unmarked) [Compound 1-21, 4-[4-(6-butylsulfonyloxy-1,5-dihydro-3H-2,4-benzodioxepin-3-yl)-2-thiazolyl]-1-[2-[5-methyl-3-(trifluoromethyl)-1H-pyrazole-1-yl]acetyl]piperidine]	100	100	90	≥ 90
CCCS(=O)(=O)Oc1cccc2c1COC(c1csc(C3CCN(C(=O)Cn4nc(C(F)(F)F)cc4C)CC3)n1)OC2 (centres unmarked) [Compound 1-22, 4-[4-(6-propylsulfonyloxy-1,5-dihydro-3H-2,4-benzodioxepin-3-yl)-2-thiazolyl]-1-[2-[5-methyl-3-(trifluoromethyl)-1H-pyrazole-1-yl]acetyl]piperidine]	100	100	100	≥ 90
Cc1cc(C(F)(F)F)nn1CC(=O)N1CCC(c2nc(C3OCc4cccc(Cl)c4CO3)cs2)CC1 (centres unmarked) [Compound 1-23, 4-[4-(6-chloro-1,5-dihydro-3H-2,4-benzodioxepin-3-yl)-2-thiazolyl]-1-[2-[5-methyl-3-(trifluoromethyl)-1H-pyrazole-1-yl]acetyl]piperidine]	100	100	100	≥ 90
Cc1cc(C(F)(F)F)nn1CC(=O)N1CCC(c2nc(C3OCc4c(OS(C)(=O)=O)ccc([N+](=O)[O-])c4CO3)cs2)CC1 (centres unmarked) [Compound 1-32, 4-[4-(6-methylsulfonyloxy-9-nitro-1,5-dihydro-3H-2,4-benzodioxepin-3-yl)-2-thiazolyl]-1-[2-[5-methyl-3-(trifluoromethyl)-1H-pyrazole-1-yl]acetyl]piperidine]	100	100	100	≥ 90
Cc1cc(C(F)(F)F)nn1CC(=O)N1CCC(c2nc(C3OCc4cccc(O)c4CO3)cs2)CC1 (centres unmarked) [Compound 1-33, 4-[4-(6-hydroxy-1,5-dihydro-3H-2,4-benzodioxepin-3-yl)-2-thiazolyl]-1-[2-[5-methyl-3-(trifluoromethyl)-1H-pyrazole-1-yl]acetyl]piperidine]	100	100	100	≥ 90
Cc1cc(C(F)(F)F)nn1CC(=O)N1CCC(c2nc(C3OCc4cccc(OC(=O)C5CC5)c4CO3)cs2)CC1 (centres unmarked) [Compound 1-34, 4-[4-(6-cyclopropylcarbonyloxy-1,5-dihydro-3H-2,4-benzodioxepin-3-yl)-2-thiazolyl]-1-[2-[5-methyl-3-(trifluoromethyl)-1H-pyrazole-1-yl]acetyl]piperidine]	100	100	100	≥ 90
Cc1cc(C(F)(F)F)nn1CC(=O)N1CCC(c2nc(C3OCc4cccc(OS(=O)(=O)C(F)(F)F)c4CO3)cs2)CC1 (centres unmarked) [Compound 1-36, 4-[4-[6-(trifluoromethyl)sulfonyloxy-1,5-dihydro-3H-2,4-benzodioxepin-3-yl]-2-thiazolyl]-1-[2-[5-methyl-3-(trifluoromethyl)-1H-pyrazole-1-yl]acetyl]piperidine]	100	100	100	≥ 90
Cc1cc(C(F)(F)F)nn1CC(=O)N1CCC(c2nc(C3OCc4ccc(Cl)cc4CO3)cs2)CC1 (centres unmarked) [Compound 1-40, 4-[4-(7-chloro-1,5-dihydro-3H-2,4-benzodioxepin-3-yl)-2-thiazolyl]-1-[2-[5-methyl-3-(trifluoromethyl)-1H-pyrazole-1-yl]acetyl]piperidine]	100	100	100	≥ 90
Cc1ccc(OS(C)(=O)=O)c2c1COC(c1csc(C3CCN(C(=O)Cn4nc(C(F)F)cc4C(F)F)CC3)n1)OC2 (centres unmarked) [Compound 1-44, 4-[4-(6-methyl-9-methylsulfonyloxy-1,5-dihydro-3H-2,4-benzodioxepin-3-yl)-2-thiazolyl]-1-[2-[3,5-bis(difluoromethyl)-1H-pyrazole-1-yl]acetyl]piperidine]	100	100	100	≥ 90
Cc1cc(C(F)(F)F)nn1CC(=O)N1CCC(c2nc(C3OCc4ccc(F)c(OS(C)(=O)=O)c4CO3)cs2)CC1 (centres unmarked) [Compound 1-45, 4-[4-(7-fluoro-6-methylsulfonyloxy-1,5-dihydro-3H-2,4-benzodioxepin-3-yl)-2-thiazolyl]-1-[2-[5-methyl-3-(trifluoromethyl)-1H-pyrazole-1-yl]acetyl]piperidine]	100	100	100	≥ 90
Cc1cc(C(F)(F)F)nn1CC(=O)N1CCC(c2nc(C3OCc4cccc(S(C)(=O)=O)c4CO3)cs2)CC1 (centres unmarked) [Compound 1-47, 4-[4-(6-methylsulfonyl-1,5-dihydro-3H-2,4-benzodioxepin-3-yl)-2-thiazolyl]-1-[2-[5-methyl-3-(trifluoromethyl)-1H-pyrazole-1-yl]acetyl]piperidine]	100	100	100	≥ 90
O=C(Cn1nc(C(F)F)cc1C(F)F)N1CCC(c2nc(C3OCc4ccc([N+](=O)[O-])cc4CO3)cs2)CC1 (centres unmarked) [Compound 1-49, 4-[4-(7-nitro-1,5-dihydro-3H-2,4-benzodioxepin-3-yl)-2-thiazolyl]-1-[2-[3,5-bis(difluoromethyl)-1H-pyrazole-1-yl]acetyl]piperidine]	100	100	100	≥ 90
O=C(Cn1nc(C(F)(F)F)cc1C(F)(F)F)N1CCC(c2nc(C3OCc4c(F)ccc(F)c4CO3)cs2)CC1 [Compound 1-50, 4-[4-(6,9-difluoro-1,5-dihydro-3H-2,4-benzodioxepin-3-yl)-2-thiazolyl]-1-[2-[3,5-bis(trifluoromethyl)-1H-pyrazole-1-yl]acetyl]piperidine]	100	100	100	≥ 90
O=C(Cn1nc(C(F)F)cc1C(F)F)N1CCC(c2nc(C3OCc4c(F)ccc(F)c4CO3)cs2)CC1 [Compound 1-51, 4-[4-(6,9-difluoro-1,5-dihydro-3H-2,4-benzodioxepin-3-yl)-2-thiazolyl]-1-[2-[3,5-bis(difluoromethyl)-1H-pyrazole-1-yl]acetyl]piperidine]	100	100	100	≥ 90
COc1ccc(Br)c2c1COC(c1csc(C3CCN(C(=O)Cn4nc(C(F)F)cc4C(F)F)CC3)n1)OC2 (centres unmarked) [Compound 1-57, 4-[4-(6-bromo-9-methoxy-1,5-dihydro-3H-2,4-benzodioxepin-3-yl)-2-thiazolyl]-1-[2-[3,5-bis(difluoromethyl)-1H-pyrazole-1-yl]acetyl]piperidine]	100	100	100	≥ 90
